From patent US20090024021A1, “Methods and Systems for Using Transcranial Magnetic Stimulation and Functional Brain Mapping for Examining Cortical Sensitivity, Brain Communication, and Effects of Medication” (priority 2002, published 2009)
“Also recorded” adds a separate entry of the source.

Tested on: left prefrontal cortex
Experiment: Interleaved TMS/phMRI (BOLD fMRI) with TMS over prefrontal cortex
Format: in vivo, human
Conditions: for Voxels, effect of LTG (between day) / Z-score, effect of LTG (between day): Prefrontal Cortex Stimulation, LTG-Placebo
Method: Study design: We performed a randomized, double-blind, crossover trial involving two visits at least one week apart (FIG. 8). […] Serum LTG levels, RMTs, and interleaved TMS/phMRI images during both motor and then prefrontal TMS were then gathered for each subject. One week later they received LTG or placebo again, followed by identical RMT and interleaved TMS/phMRI studies.
Combined TMS and MRI: Immediately following RMT determination, interleaved TMS/phMRI acquisitions were performed in a Picker EDGE 1.5 T MR scanner with actively shielded magnet and high-performance gradients (27 mT/m, 72 T/m/sec) using a typical gradient echo, echo planar imaging (EPI) fMRI sequence (tip angle=90, TR=3 sec, FOV 27.0 cm, fifteen 7 mm thick slices, 1 mm gap). TMS was delivered using a Dantec MagPro with a special nonferromagnetic TMS coil of figure-8 design with an 8-meter cable (Dantec Medical A/S, Skovlunde, Denmark) and a room set up identical to prior TMS/fMRI studies from our group. TMS pulses and the fMRI sequence were interleaved as described before^21. Each cycle, illustrated in FIG. 9, consisted of six 21-sec sub-cycles—four Test and two task (100% RMT stimulation and 120% RMT stimulation). During each sub-cycle, the scanner acquired seven sets of 15 transverse images. During the task sub-cycles the TMS was triggered 100 ms after every […] image acquisition to produce a TMS stimulation rate of 1 Hz. The entire TMS/fMRI sequence lasted 882 sec (14.7 min).
On each visit, immediately after the Motor Cortex MRI study, subjects were removed from the scanner and the TMS device was moved to position it over the left prefrontal cortex. The left prefrontal cortex stimulation site was defined as a location 5-cm rostral and in a parasagittal plane from the site of maximal APB stimulation. Subjects then reentered the scanner for the prefrontal TMS scan, which was identical to the Motor study described above except for the TMS coil location.
Individual fMRI Data Analyses: MR scans were transferred into ANALYZE format and then further processed on Sun workstations (Sun Microsystems, Palo Alto, Calif.). Scans were checked using MEDx3.3 (Sensor Systems Inc, Sterling, Va.) for movement across runs, and then were coregistered to a mean image using automatic image registration. […] After correction of motion, we used a delayed boxcar model, employed a high-pass filter to remove signal drift, cardiac and respiratory effects, and other low frequency artifacts. Then, we spatially transformed each subject's data into the Talairach Atlas (input voxel dimensions, 2.1×2.1×8 mm, to output voxel dimensions, 4×4×4 mm), smoothed (4×2 mm) the data and generated z map with the Statistical Parametric Mapping (SPM) 96 module in MEDx3.3. We assumed an uncorrected F threshold UF P>0.99 to preserve as many voxels as possible for the cluster analysis.
Group fMRI Data Analyses: All subject's unthresholded z maps were combined based on comparison of condition (TMS vs Rest), intensity (100% RMT-TMS vs 120% RMT-TMS), visit (LTG vs Placebo). The combined group z maps were thresholded using z≧3.09 (p≦0.001) and cluster statistical weight (spatial extent threshold) of p<0.05. We used either paired or unpaired t-tests in MEDx3.3 for all comparisons of interest and both areas of stimulation.
Magnitude of BOLD time course response: To compare the magnitudes of BOLD signal changes, two types of data were recorded. The different maps of LTG and placebo were used to make a mask of left motor cortex (82 voxels) and a mask of left hippocampus (19 voxels) (FIGS. 11A and 11B bottom panels). The masks used to define location were taken as an index of relative peak intensity above noise. According to the masks' Talairach coordinates, the mean signal intensity of the highest six contiguous voxels (two in each slice) in each subject was extracted from motor cortex or hippocampus with SPM plotting in MEDx.

Nc1nnc(-c2cccc(Cl)c2Cl)c(N)n1 [LTG, Lamotrigine]
number of active voxels in hippocampus, compared with placebo (100% RMT minus rest over prefrontal cortex, left hippocampus, 8 subjects, Wilcoxon p=0.04): significantly more; also recorded: significantly increased | Z-score, region of activation (LTG day, within day, n = 8, 100% RMT-Rest, Left Hippocampus, Talairach −24,−8,−24): 3.53 | Z-score, region of activation (LTG day, within day, n = 8, 100% RMT-Rest, Left cingulated gyrus, Talairach −8,−8,28): 4.08 | Z-score, region of activation (LTG day, within day, n = 8, 100% RMT-Rest, Left middle frontal gyrus (BA 6), Talairach −32,4,60): 4.04 | Z-score, region of activation (LTG day, within day, n = 8, 100% RMT-Rest, Right hippocampus, Amygdala, Talairach 20,−8,−16): 3.66 | Z-score, region of activation (LTG day, within day, n = 8, 100% RMT-Rest, Right insula (BA 13), Talairach 52,−28,20): 4.26 | Z-score, region of activation (LTG day, within day, n = 8, 100% RMT-Rest, Right middle frontal gyrus, Talairach 40,48,16): 3.96 | Z-score, region of activation (LTG day, within day, n = 8, 100% RMT-Rest, Right postcentral gyrus (BA 3), Talairach 52,−16,40): 3.18 | Z-score, region of activation (LTG day, within day, n = 8, 100% RMT-Rest, Right precentral gyrus, Talairach 36,−4,28): 4.02 | Region of activation (LTG day, within day, n = 8, 120% RMT-100%): No activity | Z-score, region of activation (LTG day, within day, n = 8, 120% RMT-Rest, Left cingulate gyrus, Talairach −8,4,36): 3.98 | Z-score, region of activation (LTG day, within day, n = 8, 120% RMT-Rest, Left medial frontal gyrus (BA 6), Talairach −48,44,−4): 4.15 | Z-score, region of activation (LTG day, within day, n = 8, 120% RMT-Rest, Left postcentral gyrus (BA 2), Talairach −56,−24,36): 4.12 | Z-score, region of activation (LTG day, within day, n = 8, 120% RMT-Rest, Left superior temporal gyrus, Talairach −60,4,−4): 4.14 | Z-score, region of activation (LTG day, within day, n = 8, 120% RMT-Rest, Right precentral gyrus, Talairach 52,−8,44): 4.31 | Z-score, region of activation (LTG day, within day, n = 8, 120% RMT-Rest, Right superior temporal gyrus, Talairach 56,−12,8): 4.53 | Voxels, effect of LTG (between day) (Gyrus frontal medius, Right): 35 | Z-score, effect of LTG (between day) (Gyrus frontal medius, Right, Talairach 30,25,41, p < .01): 2.83 | Voxels, effect of LTG (between day) (Hippocampus, Left): 19 | Z-score, effect of LTG (between day) (Hippocampus, Left, Talairach −25,−11,−25, p < .05): 2.26 | Voxels, effect of LTG (between day) (Insula, Right): 57 | Z-score, effect of LTG (between day) (Insula, Right, Talairach 39,13,1, p < .01): 2.83 | Voxels, effect of LTG (between day) (Postcentral gyrus, Right): 59 | Z-score, effect of LTG (between day) (Postcentral gyrus, Right, Talairach 53,−32,40, p < .01): 2.83 | Voxels, effect of LTG (between day) (Temporal lobe, Left): 112 | Z-score, effect of LTG (between day) (Temporal lobe, Left, Talairach −43,15,−25, p < .001): 3.78 | brain activity in the hippocampus and the orbital frontal gyrus, compared to placebo (formal between-day analysis, 100% RMT prefrontal stimulation vs rest, 8 subjects): increased brain activity; also recorded: increases this activity | % BOLD signal change in left hippocampus, LTG vs placebo, entire time series (prefrontal TMS, 8 subjects, ANOVA F=1.12, p=0.326): failed to show significant differences | % BOLD change in left hippocampus compared with placebo, TMS phase (prefrontal TMS, time points 14-17, 8 subjects, t=−2.69, p=0.009): significantly increased
